Data: paper PMC4580469, “Expression and Purification of Human Membrane Progestin Receptor α (mPRα)” (PLoS ONE, 2015)

Molecular target: T1, human membrane progestin receptor α (hmPRα) (Homo sapiens, UniProt Q86WK9)
T1 construct: gene PAQR7; DDM-solubilized and purified over Ni-NTA, Cellufine Amino and SP-Sepharose; ~50 kDa band, theoretical 52 kDa with signal
T1 sequence (Q86WK9 1-346): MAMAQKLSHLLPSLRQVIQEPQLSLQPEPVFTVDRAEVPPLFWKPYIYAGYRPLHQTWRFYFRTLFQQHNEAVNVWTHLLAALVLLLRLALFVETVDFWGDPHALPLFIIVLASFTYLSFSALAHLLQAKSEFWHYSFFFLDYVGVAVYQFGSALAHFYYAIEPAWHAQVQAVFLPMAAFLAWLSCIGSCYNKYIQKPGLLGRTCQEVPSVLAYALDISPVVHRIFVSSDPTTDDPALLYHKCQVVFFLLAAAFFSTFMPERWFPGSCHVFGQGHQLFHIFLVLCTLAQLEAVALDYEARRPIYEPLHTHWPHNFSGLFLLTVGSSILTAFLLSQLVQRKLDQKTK
Assay: radioligand saturation filter binding, Scatchard analysis

Kd: 5.2 nM
Compound: CC(=O)[C@H]1CC[C@H]2[C@@H]3CCC4=CC(=O)CC[C@]4(C)[C@H]3CC[C@]12C [progesterone]
